Measurements published in US4003915A, “Tricyclic imines” (Hoffmann-La Roche Inc., priority 1970, dated 1977).

Assays:
[1] = LD50 in mice on oral administration (toxicity); settings: mouse, in vivo
[2] = anticonvulsant properties (no test described); settings: in words
[3] = diuretic activity; settings: in words
[4] = antidepressant activity; settings: in words
[5] = anticholinergic activity; settings: in words
[6] = antitussive activity; settings: in words
[7] = anti-Parkinson activity; settings: in words

Structure (SMILES) | LD50 [1] [mg/kg] | antidepressant activity [4] | anticholinergic activity [5] | activity against Parkinsonism [7] | also measured
CN(C)CCN=C1c2ccccc2CCc2c(Br)cccc21 [1-bromo-N-(2-dimethylamino-ethyl)-10,11-dihydro-5H-dibenzo[a,d]cyclohepten-5-imine] | ~750 | – | – | – | anticonvulsant properties [2]: strong
CCN(CC)CCN=C1c2ccccc2CCc2c(Cl)cccc21 [1-chloro-N-(2-diethylamino-ethyl)-10,11-dihydro-5H-dibenzo[a,d]cyclohepten-5-imine] | – | – | – | – | diuretic activity [3]: strong
CN(C)CCN=C1c2ccccc2CCc2c(Cl)cccc21 [1-chloro-N-(2-dimethylamino-ethyl)-10,11-dihydro-5H-dibenzo[a,d]cyclohepten-5-imine] | ~750 | acts principally as an antidepressant | very weak | – | –
CCN(CC)CCN=C1c2ccccc2CCc2ccc(Cl)cc21 [3-chloro-N-(2-diethylamino-ethyl)-10,11-dihydro-5H-dibenzo[a,d]cyclohepten-5-imine] | – | – | – | – | antitussive activity [6]: strong
CN(C)CCN=C1c2ccccc2CCc2ccc(Cl)cc21 [3-chloro-N-(2-dimethylamino-ethyl)-10,11-dihydro5H-dibenzo[a,d]cyclohepten-5-imine] | – | strong | strong | very active | –
CN(C)CCN=C1c2ccccc2CCc2ccccc21 [N-(2-dimethylamino-ethyl)-10,11-dihydro-5H-dibenzo[a,d]cyclohepten-5-imine] | – | – | – | very active | central and peripheral anticholinergic activity ([5]; central and peripheral): strong
